According to ChEMBL document CHEMBL1139106, “Specific stabilization of DNA triple helices by indolo[2,1-b]quinazolin-6,12-dione derivatives” (Bioorg Med Chem Lett, 2007):
Active and inactive are the calls of the source. The rule behind the calls is not given here.

How the values were obtained:
Homo sapiens [1] = species on record: Homo sapiens; test: Binding affinity to 14C3 DNA triplex assessed as stabilization of triplex DNA form
Homo sapiens [2] = species on record: Homo sapiens; test: Binding affinity to 14C3 DNA triplex assessed as melting temperature change from triplex to duplex DNA forms by UV absorption spectrometry
Homo sapiens [3] = species on record: Homo sapiens; test: Binding affinity to 14C3 DNA triplex assessed as melting temperature for transition from triplex to duplex DNA forms by UV absorption spectrometry
Homo sapiens [4] = species on record: Homo sapiens; test: Binding affinity to 14C3 DNA triplex assessed as melting temperature for transition from duplex to single strand DNA forms by UV absorption spectrometry
Homo sapiens [5] = species on record: Homo sapiens; test: Binding affinity to 14C3 DNA triplex assessed as melting temperature change from duplex to single strand DNA forms by UV absorption spectrometry

Activity (Homo sapiens [1]) | ΔTm (Homo sapiens [2]) [°C] | Tm (Homo sapiens [3]) [°C] | Tm (Homo sapiens [4]) [°C] | ΔTm (Homo sapiens [5]) [°C] | SMILES
Active |  |  |  |  | COc1ccc2c(ccc3[nH]c4c(C)cnc(NCCCN)c4c32)c1
 | 18.8 | 39.3 | 62.3 | 3.3 | CN(CCCN)c1ccc2c(c1)-n1c(nc3ccccc3c1=O)C2=O
 | 24.8 | 45.3 | 61.8 | 2.8 | CN(CCCN)c1cc2c(cc1F)C(=O)c1nc3ccccc3c(=O)n1-2
 | 13 | 33.5 | 64.7 | 5.7 | NCCCNc1ccc2c(c1)-n1c(nc3ccccc3c1=O)C2=O
Active |  |  |  |  | COc1ccc2c(ccc3c2[nH]c2c(C)cnc(NCCCN(C)CCCN)c23)c1
 | 19.3 | 39.8 | 63.8 | 4.8 | NCCCNc1cc2c(cc1F)C(=O)c1nc3ccccc3c(=O)n1-2
